This is an account of results in US12491230B2, “Peptides for use in promoting transport of glucose” (NURITAS LIMITED, priority 2015, dated 2025).

One data set concerns L6-GLUT4myc cells. In words: Cell viability / cell death seen in the GLUT4 translocation experiment. Format: cell-based, rat. The note with it: synthetic peptide 200 μM, 3 hours. As for the experimental part: (§1) L6-GLUT4myc cells were serum-starved for three hours prior to incubation with 100 nM of insulin for 30 mins, or 200, 20, 2.0 and 0.2 μM of SP, and 2, 1, 0.5 and 0.25 mg/ml of peptide composition for 3 hours respectively. A 3 hour incubation period was selected based on previous findings identifying that incubation with branch chain amino acid containing di-peptides for 3 hours increases glucose uptake in L6 myotubes 1. Treatments were staggered in order to determine GLUT4myc translocation at the same time point.

A further data set deals with GLUT4. In words: Measurement of GLUT4myc translocation in L6 myotubes (antibody-coupled colorimetric assay). Format: cell-based, rat. The settings on record: L6-GLUT4myc cells.
Source text: We determined the effect of six synthetic peptides (SP1-6) and four peptide compositions on in vitro GLUT4 translocation using the L6 rat skeletal muscle cell line. A clone of the L6 cell line containing overexpression of GLUT4 tagged with a c-myc epitope (courtesy of Prof. Amira Klip, Hospital for Sick Children, Toronto) was used to investigate the efficacy of each synthetic peptide and peptide composition for effects on GLUT4 translocation in a dose-response design.
L6-GLUT4myc cells were grown in 10% FBS and 2 μg/ml blasticidin. Cells were grown for 48-72 hours before being seeded in 24-well plates at 15,000 cells per well in 2% FBS and allowed to differentiate for 6 to 8 days prior to experimentation.
as §1
The quantity of myc-tagged GLUT4 at the cell surface was measured by antibody-coupled colorimetric assay. Briefly, after incubation with either insulin for 30 mins or synthetic peptide or peptide composition for 3 hours respectively, L6-GLUT4myc cells were fixed via incubation with 3% paraformaldehyde (PFA). A 0.1 M glycine solution was then added to quench PFA and cells were blocked with 5% goat serum. The myotube monolayer was exposed to anti-myc antibody and then incubated with peroxidase conjugated donkey anti-mouse IgG. 1 mL of o-phenylenediamine dihydrochloride (OPD) reagent was added to each well and this reaction was stopped by adding 250 μl/well of 3 M HCL. To determine GLUT4 translocation to cell surface, a measured aliquot of each condition was determined spectrophotometrically on a plate reader using absorbance at 492 nm. […]

No end group written: not given here.

Take DTFYNAAWDPSNR [SP1, DTFYNAAWDPSNR]: the cell viability entry with L6-GLUT4myc cells is on record as “poor cell viability”.
On to VLDLAIPVNRPGQL [SP2], for which the “stimulatory effect on skeletal muscle GLUT4 translocation (conclusion of the experiment)” value in the data set on GLUT4 (dose-response design) was “displayed a trend for stimulatory effect”. Also, the GLUT4 translocation entry in the data set with GLUT4 (synthetic peptide 0.2-2 μM, 3 hours) is listed as “trend for SP2 to increase GLUT4 translocation”.
On to insulin [reference compound], for which the “average increase in cell surface GLUT4 translocation compared to untreated control” value with GLUT4 (100 nM insulin, 30 mins) was found to be 1.72 fold.
